Read-outs that look alike come from different tables or passages of the source.
Assays:
[1] = Blocking experiments: inhibition of radiotracer accumulation in the rat by coadministered compound; format: in vivo, rat (male Wistar); conditions: rat, iv, rat, iv, 60 min
Description: (§1) *Animals in group 1 received an iv injection of (+)4-[^125 l]HIPP
(§2) only. For groups 2, 3, and 4, the radiotracer was coadministered with the
(§3) hydrochlorides of (+)7 (0.53 mg/kg), (-)7 (0.53 mg/kg) and vesamicol (0.3
(§4) Four groups of male Wistar rats (n=3) were used in these experiments. All animals received an iv dose of 8-10 μCi of the radiotracer in 0.1 ml of 50% aq. ethanol. Additionally, in groups 2, 3 and 4, the radiotracer was coadministered with (+)-HBrPP.HCl(1.3 μmol/kg), (-)-HBrPP.HCl(1.3 μmol/kg) and (dl)-vesamicol hydrochloride (1.1 μmol/kg), respectively. At 60 min. post-injection, blood was collected by cardiac puncture and the animals sacrificed as described above. The data was analyzed as outlined above.
(§5) NOTE: The dose of radiotracer injected was 5-7 mCi. Group I was the
(§6) control, injected with the radiotracer only. Group II included the
(§7) simultaneous injection of "cold"(dl)3-HIPP (HCl) (0.53 mg/kg). Group III
(§8) included the simultaneous injection of (dl) vesamicol (HCl) (0.31 mg/kg).
(§9) All rats were sacrificed at one hour postinjection.
(§10) NOTE: Group I was the control, injected with the radiotracer only. Group
(§11) II included the simultaneous injection of "cold"(dl)3-HIPP (HCl) (0.53
(§12) mg/kg). Group III included the simultaneous injection of (dl) vesamicol
(§13) hydrochloride (0.31 mg/kg). The dose of radiotracer was 8-9 μCi. All
(§14) rats were sacrificed at one hour postinjection.
(§15) NOTE: Group I received (+)[^125 l]13 only. Group II received the (+)
(§16) radiotracer coinjected with 0.31 mg/kg (dl)vesamicol hydrochloride. Group
(§17) III received (-)[^125 l]13 only. Group IV received the (-) radiotrace
(§18) coinjected with 0.31 mg/kg (dl)vesamicol hydrochloride. All animals were
(§19) sacrificed at one hour postinjection. The dose of radiotracer injected pe

vesamicol receptor = experiment: as above; format: in vivo, rat (male Wistar); conditions: rat, iv, 60 min
Description: as §1, §2, §3, §4, §5, §6, §7, §8, §9, §10, §11, §12, §13, §14, §15, §16, §17, §18, §19

[2] = Tissue distribution (biodistribution) of radioiodinated compound in the rat; conditions: rat; for Brain: Blood Ratio / Heart: Blood Ratio / radioactivity in blood / radioactivity in brain / radioactivity in heart / radioactivity in kidney / radioactivity in liver / radioactivity in lung / radioactivity in muscle / radioactivity in spleen: iv
Description: Four groups of male Wistar rats (with four animals per group) weighing 200-350 g were used in these experiments. Each animal received, while under ether anesthesia, an intravenous injection of the radiotracer (10-20 μCi) dissolved in 0.1 ml of 50% aqueous ethanol. At 5, 30, and 60 and 180 min. post-injection, blood was collected from the anesthetized animals by cardiac puncture, and the animal was immediately sacrificed by cardiectomy. The organs and tissues of interest were harvested, transferred to preweighed tubes and counted in a Beckman gamma counter. The tubes were subsequently reweighed to give the weight of the corresponding tissues. Preweighed tubes containing ^1 -ml samples of a 1:100 dilution of the injection dose were also counted and used as reference for calculating the tissue accumulation of radioactivity. The accumulation of radiotracer was expressed as a percentage of injected dose per gram of tissue.

[3] = + (dl)-vesamicol HCl 0.3 (Table 3) or 0.31 mg/kg

OC(Cc1ccc([125I])cc1)CN1CCC(c2ccccc2)CC1 (single isomer, unassigned; (-)) [(-)-4-[^125 l]HIPP, 2-Hydroxy-3-(4-iodophenyl)-1-(4-phenylpiperidyl)propane]
tissue uptake at 1 h ([1]; blood, + (+)-7 HCl 0.53 mg/kg, read-out: radioactivity in blood): 0.05 %ID/g | tissue uptake at 1 h ([1]; blood, + (-)-7 HCl 0.53 mg/kg, read-out: radioactivity in blood): 0.04 %ID/g | tissue uptake at 1 h ([1]; blood, + (dl)-vesamicol HCl 0.3 (Table 3) or 0.31 mg/kg, read-out: radioactivity in blood): 0.02 %ID/g | tissue uptake at 1 h ([1]; blood, radiotracer only (control), read-out: radioactivity in blood): 0.02 %ID/g | tissue uptake at 1 h ([1]; brain, + (+)-7 HCl 0.53 mg/kg, read-out: radioactivity in brain): 0.28 %ID/g | tissue uptake at 1 h ([1]; brain, + (-)-7 HCl 0.53 mg/kg, read-out: radioactivity in brain): 0.29 %ID/g | tissue uptake at 1 h ([1]; brain, + (dl)-vesamicol HCl 0.3 (Table 3) or 0.31 mg/kg, read-out: radioactivity in brain): 0.31 %ID/g | tissue uptake at 1 h ([1]; brain, radiotracer only (control), read-out: radioactivity in brain): 0.93 %ID/g | tissue uptake at 1 h ([1]; heart, + (+)-7 HCl 0.53 mg/kg, read-out: radioactivity in heart): 0.12 %ID/g | tissue uptake at 1 h ([1]; heart, + (-)-7 HCl 0.53 mg/kg, read-out: radioactivity in heart): 0.13 %ID/g | tissue uptake at 1 h ([1]; heart, + (dl)-vesamicol HCl 0.3 (Table 3) or 0.31 mg/kg, read-out: radioactivity in heart): 0.13 %ID/g | tissue uptake at 1 h ([1]; heart, radiotracer only (control), read-out: radioactivity in heart): 0.79 %ID/g | tissue uptake at 1 h ([1]; kidney, + (+)-7 HCl 0.53 mg/kg, read-out: radioactivity in kidney): 0.46 %ID/g | tissue uptake at 1 h ([1]; kidney, + (-)-7 HCl 0.53 mg/kg, read-out: radioactivity in kidney): 0.42 %ID/g | tissue uptake at 1 h ([1]; kidney, + (dl)-vesamicol HCl 0.3 (Table 3) or 0.31 mg/kg, read-out: radioactivity in kidney): 0.35 %ID/g | tissue uptake at 1 h ([1]; kidney, radiotracer only (control), read-out: radioactivity in kidney): 1.9 %ID/g | tissue uptake at 1 h ([1]; liver, + (dl)-vesamicol HCl 0.3 (Table 3) or 0.31 mg/kg, read-out: radioactivity in liver): 4.18 %ID/g | tissue uptake at 1 h ([1]; liver, radiotracer only (control), read-out: radioactivity in liver): 2.68 %ID/g | tissue uptake at 1 h ([1]; lung, + (+)-7 HCl 0.53 mg/kg, read-out: radioactivity in lung): 1.64 %ID/g | tissue uptake at 1 h ([1]; lung, + (-)-7 HCl 0.53 mg/kg, read-out: radioactivity in lung): 1.04 %ID/g | tissue uptake at 1 h ([1]; lung, + (dl)-vesamicol HCl 0.3 (Table 3) or 0.31 mg/kg, read-out: radioactivity in lung): 0.95 %ID/g | tissue uptake at 1 h ([1]; lung, radiotracer only (control), read-out: radioactivity in lung): 3.63 %ID/g | tissue uptake at 1 h ([1]; muscle, + (+)-7 HCl 0.53 mg/kg, read-out: radioactivity in muscle): 0.07 %ID/g | tissue uptake at 1 h ([1]; muscle, + (-)-7 HCl 0.53 mg/kg, read-out: radioactivity in muscle): 0.08 %ID/g | tissue uptake at 1 h ([1]; muscle, + (dl)-vesamicol HCl 0.3 (Table 3) or 0.31 mg/kg, read-out: radioactivity in muscle): 0.06 %ID/g | tissue uptake at 1 h ([1]; muscle, radiotracer only (control), read-out: radioactivity in muscle): 0.21 %ID/g | tissue uptake at 1 h ([1]; spleen, + (+)-7 HCl 0.53 mg/kg, read-out: radioactivity in spleen): 0.57 %ID/g | tissue uptake at 1 h ([1]; spleen, + (-)-7 HCl 0.53 mg/kg, read-out: radioactivity in spleen): 0.57 %ID/g | tissue uptake at 1 h ([1]; spleen, + (dl)-vesamicol HCl 0.3 (Table 3) or 0.31 mg/kg, read-out: radioactivity in spleen): 0.6 %ID/g | tissue uptake at 1 h ([1]; spleen, radiotracer only (control), read-out: radioactivity in spleen): 1.42 %ID/g

OC(CN1CCC(c2ccccc2)CC1)c1ccc([125I])cc1 (single isomer, unassigned; (-)) [(-)-[^125 l]13] [1-(4-Iodophenyl)-2-(4-phenylpiperidinyl)ethanol]
radioactivity in heart (vesamicol receptor; [3]): 0.08 % dose/g of tissue | Brain: Blood Ratio (vesamicol receptor; [3]): 1.61 | Heart: Blood Ratio (vesamicol receptor; [3]): 0.99 | radioactivity in blood (vesamicol receptor; [3]): 0.08 % dose/g of tissue | radioactivity in brain (vesamicol receptor; [3]): 0.13 % dose/g of tissue | radioactivity in kidney (vesamicol receptor; [3]): 0.38 % dose/g of tissue | radioactivity in liver (vesamicol receptor; [3]): 1.44 % dose/g of tissue | radioactivity in lung (vesamicol receptor; [3]): 0.34 % dose/g of tissue | radioactivity in muscle (vesamicol receptor; [3]): 0.07 % dose/g of tissue | radioactivity in spleen (vesamicol receptor; [3]): 0.27 % dose/g of tissue | Brain: Blood Ratio (vesamicol receptor; radiotracer only (control)): 7.41 | Heart: Blood Ratio (vesamicol receptor; radiotracer only (control)): 1.31 | radioactivity in blood (vesamicol receptor; radiotracer only (control)): 0.10 % dose/g of tissue | radioactivity in brain (vesamicol receptor; radiotracer only (control)): 0.73 % dose/g of tissue | radioactivity in heart (vesamicol receptor; radiotracer only (control)): 0.13 % dose/g of tissue | radioactivity in kidney (vesamicol receptor; radiotracer only (control)): 1.26 % dose/g of tissue | radioactivity in liver (vesamicol receptor; radiotracer only (control)): 1.66 % dose/g of tissue | radioactivity in lung (vesamicol receptor; radiotracer only (control)): 0.66 % dose/g of tissue | radioactivity in muscle (vesamicol receptor; radiotracer only (control)): 0.11 % dose/g of tissue | radioactivity in spleen (vesamicol receptor; radiotracer only (control)): 0.61 % dose/g of tissue | decrease of concentration in the brain ([2]; 3 hours post-injection vs initial, listed as (-)-[^125 I]13): 85% | initial accumulation in the rat brain ([2]; initial, listed as (-)-[^125 I]13): 1.69 % of the injected dose | Brain: Blood Ratio ([2]; 5 min): 8.7 | Heart: Blood Ratio ([2]; 5 min): 6.2 | radioactivity in blood ([2]; 5 min): 0.13 % dose/g | radioactivity in brain ([2]; 5 min): 1.08 % dose/g | radioactivity in heart ([2]; 5 min): 0.77 % dose/g | radioactivity in kidney ([2]; 5 min): 3.38 % dose/g | radioactivity in liver ([2]; 5 min): 1.72 % dose/g | radioactivity in lung ([2]; 5 min): 5.05 % dose/g | radioactivity in muscle ([2]; 5 min): 0.32 % dose/g | radioactivity in spleen ([2]; 5 min): 0.70 % dose/g | Brain: Blood Ratio ([2]; 60 min): 11.1 | Heart: Blood Ratio ([2]; 60 min): 2.0 | radioactivity in blood ([2]; 60 min): 0.06 % dose/g | radioactivity in brain ([2]; 60 min): .70 % dose/g | radioactivity in heart ([2]; 60 min): 0.13 % dose/g | radioactivity in kidney ([2]; 60 min): 1.47 % dose/g | radioactivity in liver ([2]; 60 min): 1.90 % dose/g | radioactivity in lung ([2]; 60 min): 0.54 % dose/g | radioactivity in muscle ([2]; 60 min): 0.11 % dose/g | radioactivity in spleen ([2]; 60 min): 0.57 % dose/g | Brain: Blood Ratio ([2]; 180 min): 5.5 | Heart: Blood Ratio ([2]; 180 min): 0.9 | radioactivity in blood ([2]; 180 min): 0.06 % dose/g | radioactivity in brain ([2]; 180 min): 0.35 % dose/g | radioactivity in heart ([2]; 180 min): 0.05 % dose/g | radioactivity in kidney ([2]; 180 min): 0.74 % dose/g | radioactivity in liver ([2]; 180 min): 0.98 % dose/g | radioactivity in lung ([2]; 180 min): 0.24 % dose/g | radioactivity in muscle ([2]; 180 min): 0.05 % dose/g | radioactivity in spleen ([2]; 180 min): 0.23 % dose/g
